We go through 12 molecules from US9878986B2, “Compounds for selective histone deacetylase inhibitors, and pharmaceutical composition comprising the same” (CHONG KUN DANG PHARMACEUTICAL CORP., priority 2013, dated 2018).

Assay [1] concerns the target T1, HDAC 6 (Homo sapiens, UniProt Q9UBN7).
T1 sequence (Q9UBN7 1-1215): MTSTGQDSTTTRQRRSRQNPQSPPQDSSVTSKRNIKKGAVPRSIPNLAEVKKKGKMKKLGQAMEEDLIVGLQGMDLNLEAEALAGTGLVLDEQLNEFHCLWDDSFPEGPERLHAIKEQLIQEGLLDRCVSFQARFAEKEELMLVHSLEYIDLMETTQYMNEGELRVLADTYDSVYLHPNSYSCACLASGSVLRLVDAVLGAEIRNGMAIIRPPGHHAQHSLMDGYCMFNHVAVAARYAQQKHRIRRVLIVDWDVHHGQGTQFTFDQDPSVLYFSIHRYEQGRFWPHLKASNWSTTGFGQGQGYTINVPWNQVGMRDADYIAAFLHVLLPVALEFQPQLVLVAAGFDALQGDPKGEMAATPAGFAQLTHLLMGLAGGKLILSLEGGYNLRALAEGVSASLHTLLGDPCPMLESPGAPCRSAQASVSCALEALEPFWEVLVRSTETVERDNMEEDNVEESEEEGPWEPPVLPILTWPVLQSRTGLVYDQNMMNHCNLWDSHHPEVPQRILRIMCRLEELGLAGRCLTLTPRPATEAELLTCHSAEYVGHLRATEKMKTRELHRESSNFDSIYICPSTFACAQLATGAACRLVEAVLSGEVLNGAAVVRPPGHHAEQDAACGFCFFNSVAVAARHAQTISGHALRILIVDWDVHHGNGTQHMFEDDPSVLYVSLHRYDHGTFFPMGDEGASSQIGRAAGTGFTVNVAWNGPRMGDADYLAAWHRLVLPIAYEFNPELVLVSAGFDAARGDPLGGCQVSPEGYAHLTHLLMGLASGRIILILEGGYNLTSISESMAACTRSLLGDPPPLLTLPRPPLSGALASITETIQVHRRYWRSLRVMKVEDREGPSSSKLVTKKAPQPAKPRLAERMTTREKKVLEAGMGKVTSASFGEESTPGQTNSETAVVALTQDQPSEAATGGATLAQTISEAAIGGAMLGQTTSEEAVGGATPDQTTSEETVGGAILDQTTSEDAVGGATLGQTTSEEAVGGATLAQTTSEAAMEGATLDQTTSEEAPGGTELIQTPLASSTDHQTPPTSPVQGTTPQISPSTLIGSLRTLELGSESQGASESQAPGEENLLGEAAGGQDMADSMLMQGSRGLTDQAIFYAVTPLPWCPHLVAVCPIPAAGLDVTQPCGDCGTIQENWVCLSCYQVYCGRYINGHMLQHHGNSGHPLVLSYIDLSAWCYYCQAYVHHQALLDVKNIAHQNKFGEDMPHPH
As to the kind of experiment: Test of HDAC activities, HDAC6 (fluorimetric). Type of assay: biochemical. Set-up: purchased Calbiochem 382180. The conditions noted are these: samples at 0.1, 1, 10, 100, 1000 nM; 37° C. 60 minutes; fluorescence Ex 390, Em 460; read-out: HDAC inhibitory activities, HDAC6. In outline: (§1)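 HDAC1 tested at 100, 1000 and 10000 nM; recombinant human HDAC6 at 0.1, 1, 10, 100 and 1000 nM. Reaction 60 min at 37° C, then developer for 30 min at 37° C; fluorescence read at Ex 390/Em 460.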

Assay [2] deals with HDAC1 (Homo sapiens, UniProt Q13547). Kind of assay: Test of HDAC activities, HDAC1 Fluorimetric Drug Discovery Assay Kit. Type of assay: biochemical. Details: purchased Enzolifesciences BML-AK511. The conditions noted are these: samples at 100, 1000, 10000 nM; 37° C. 60 minutes; fluorescence Ex 390, Em 460; read-out: HDAC inhibitory activities, HDAC1. In outline: as §1
HDAC1, sequence (Q13547 whole entry): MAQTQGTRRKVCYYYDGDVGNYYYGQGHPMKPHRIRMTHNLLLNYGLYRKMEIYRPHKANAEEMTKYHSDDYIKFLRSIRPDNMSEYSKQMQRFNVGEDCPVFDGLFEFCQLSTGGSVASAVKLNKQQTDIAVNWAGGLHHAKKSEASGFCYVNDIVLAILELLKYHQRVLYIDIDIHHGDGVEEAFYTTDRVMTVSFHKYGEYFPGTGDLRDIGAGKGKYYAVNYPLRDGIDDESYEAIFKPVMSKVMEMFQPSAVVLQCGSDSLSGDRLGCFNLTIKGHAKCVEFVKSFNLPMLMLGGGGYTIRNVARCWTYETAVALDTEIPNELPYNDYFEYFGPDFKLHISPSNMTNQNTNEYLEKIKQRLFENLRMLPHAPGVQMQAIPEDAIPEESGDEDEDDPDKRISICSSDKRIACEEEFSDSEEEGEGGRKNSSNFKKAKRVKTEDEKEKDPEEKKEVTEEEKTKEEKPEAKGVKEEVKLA

Where only a bound is given, the exact number is not on record here.

With `O=C(NO)c1ccc(CN(C(=O)N2CCOCC2)c2ccc(C(F)(F)F)cc2)c(F)c1` [Compound 577, N-(2-fluoro-4-(hydroxycarbamoyl)benzyl)-N-(4-(trifluoromethyl)phenyl)morpholine-4-carboxamide], the IC50 turned out to be 1.2 nM in assay [1] and 1000 nM in assay [2].

Take `O=C(NO)c1ccc(CN(C(=O)N2CC(F)(F)C2)c2ccc(C(F)(F)F)cc2)c(F)c1` [Compound 578, 3,3-difluoro-N-(2-fluoro-4-(hydroxycarbamoyl)benzyl)-N-(4-(trifluoromethyl)phenyl) azetidine-1-carboxamide]: the figures for the IC50 in assay [1] and in assay [2] were 9.3 nM and 1250 nM, respectively.

On to `O=C(NO)c1ccc(CN(C(=O)N2CCCOCC2)c2ccc(C(F)(F)F)cc2)cc1` [Compound 580, N-(4-(hydroxycarbamoyl)benzyl)-N-(4-(trifluoromethyl)phenyl)-1,4-oxazepane-4-carboxamide], for which the IC50 in assay [1] is 21 nM; in assay [2], 667 nM.

On to `O=C(NO)c1ccc(CN(C(=O)N2CCN(CC3(O)CCOCC3)CC2)c2cccc(C(F)(F)F)c2)cc1` [Compound 651, 4-((4-hydroxy-tetrahydro-2H-pyran-4-yl)methyl)-N-(4-(hydroxycarbamoyl)benzyl)-N-(3-(trifluoromethyl)phenyl)piperazine-1-carboxamide], for which the IC50 amounted to 4.6 nM in assay [1] and 765 nM in assay [2].

As for `O=C(NO)c1ccc(CN(C(=O)N2CCN(Cc3ccccc3)CC2)c2cccc(C(F)(F)F)c2)cc1` [Compound 683, 4-benzyl-N-(4-(hydroxycarbamoyl)benzyl)-N-(3-(trifluoromethyl)phenyl)piperazine-1-carboxamide], the IC50 in assay [1] amounted to 1.4 nM; in assay [2], 545 nM.

As for `COc1cccc(N2CCN(C(=O)N(Cc3ccc(C(=O)NO)cc3)c3cccc(C(F)(F)F)c3)CC2)c1` [Compound 684, N-(4-(hydroxycarbamoyl)benzyl)-4-(3-methoxyphenyl)-N-(3-(trifluoromethyl)phenyl)piperazine-1-carboxamide], the IC50 in assay [1] was determined as 19 nM; in assay [2], 4980 nM.

In the case of `O=C(NO)c1ccc(CN(C(=O)N2CCN(CC3(F)CCOCC3)CC2)c2cccc(C(F)(F)F)c2)cc1` [Compound 716, 4-((4-fluorotetrahydro-2H-pyran-4-yl)methyl)-N-(4-(hydroxycarbamoyl)benzyl)-N-(3-(trifluoromethyl)phenyl)piperazine-1-carboxamide], the IC50 in assay [1] was 6.4 nM; in assay [2], 727 nM.

As for `O=C(NO)c1ccc(CN(C(=O)N2CCN(c3ccccc3)CC2)c2cccc(C(F)(F)F)c2)cc1` [Compound 717, N-(4-(hydroxycarbamoyl)benzyl)-4-phenyl-N-(3-(trifluoromethyl)phenyl)piperazine-1-carboxamide], the IC50 in assay [1] is 24 nM; in assay [2], 2370 nM.

Turning to `O=C(NO)c1ccc(CN(C(=O)N2CCN(C(c3ccccc3)c3ccccc3)CC2)c2cccc(C(F)(F)F)c2)cc1` [Compound 718, 4-benzhydryl-N-(4-(hydroxycarbamoyl)benzyl)-N-(3-(trifluoromethyl)phenyl)piperazine-1-carboxamide], the IC50 turned out to be 405 nM in assay [1] and 8540 nM in assay [2].

As to `CCN1CCN(C(=O)N(Cc2ccc(C(=O)NO)cc2)c2cccc(CF)c2)CC1` [Compound 765, 4-ethyl-N-(3-(fluoromethyl)phenyl)-N-(4-(hydroxycarbamoyl)benzyl)piperazine-1-carboxamide], the IC50 in assay [1] turned out to be 1.8 nM; in assay [2] it was 433 nM.

For `CC(C)(F)CN1CCN(C(=O)N(Cc2ccc(C(=O)NO)cc2)c2cccc(CF)c2)CC1` [Compound 766, 4-(2-fluoro-2-methylpropyl)-N-(3-(fluoromethyl)phenyl)-N-(4-(hydroxycarbamoyl)benzyl)piperazine-1-carboxamide], the IC50 in assay [1] came to 3 nM; in assay [2], 838 nM.

Regarding `O=C(NO)c1ccc(CN(C(=O)N2CCOCC2)c2ccccc2OC(F)(F)F)cc1` [Compound 771, N-(4-(hydroxycarbamoyl)benzyl)-N-(2-(trifluoromethoxy)phenyl)morpholine-4-carboxamide], the IC50 in assay [1] was 64.5 nM; in assay [2] it was > 10000 nM.
